Experimental data: PMC7093416, “Selective USP7 inhibition elicits cancer cell killing through a p53-dependent mechanism” (Scientific Reports, 2020)
Where two headings read alike, the source gives them in different places.

Columns and labels:
[1] = target: T1, USP7 C223A catalytic domain (Homo sapiens, UniProt Q93009, C223A); experiment: Intact MS labeling of USP7 C223A catalytic domain; type: binding; details: 2.5-fold molar excess, 2 hours
T1 construct: catalytic domain (208–560) used were cloned as described; inferred from Ni-NTA purification; made in house; host or cells: E. coli BL21 (DE3)
T1 sequence (Q93009 208-560 C223A): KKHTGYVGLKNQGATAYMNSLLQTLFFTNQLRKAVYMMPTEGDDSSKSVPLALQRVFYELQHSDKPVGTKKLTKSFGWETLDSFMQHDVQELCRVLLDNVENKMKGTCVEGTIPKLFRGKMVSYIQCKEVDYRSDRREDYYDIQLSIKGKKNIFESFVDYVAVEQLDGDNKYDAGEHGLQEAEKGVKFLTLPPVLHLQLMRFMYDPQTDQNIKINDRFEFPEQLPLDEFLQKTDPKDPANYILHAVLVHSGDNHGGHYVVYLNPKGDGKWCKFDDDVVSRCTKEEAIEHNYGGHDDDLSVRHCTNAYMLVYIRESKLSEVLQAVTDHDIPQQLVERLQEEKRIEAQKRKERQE
Experimental: The constructs encoding USP7 full length (amino acids 1–1102) and catalytic domain (208–560) used were cloned as described. Both constructs were overexpressed in E. coli BL21 (DE3). Cells were grown at 37 °C to an OD of 0.9, cooled to 16 °C, induced with 500 μM isopropyl-1-thio-D-galactopyranoside (IPTG), incubated overnight at 16 °C, collected by centrifugation, and stored at −80 °C. Cell pellets were sonicated in lysis buffer (25 mM Tris pH 8, 1 M NaCl, and 10 mM BME) supplemented with 10 μg/ml phenylmethanesulfonylfluoride (PMSF) and the resulting lysate was centrifuged at 30,000 xg for 40 min. Ni-NTA beads (Qiagen) were mixed with lysate supernatant for 2 hours, and washed with lysis buffer supplemented with 25 mM imidazole. The bound protein was eluted with lysis buffer supplemented with 300 mM imidazole. […]
Figure S1: Full-length recombinant purified USP7 was pre-incubated with XL041 at the indicated concentrations for the indicated times, then Ub-AMC was added and fluorescence was monitored. […]
Figure S5: MCF7 cells were transfected with the indicated pcDNA constructs for 48 hours, then treated with XL177A at the indicated concentration for 3 hours. Cells were lysed, and FLAG-USP7 target engagement was assessed with the DUB ABP HA-Ub-VS. Densitometry was performed using ImageStudio software and analyzed using Graphpad Prism. […]

USP7 = USP7 (Homo sapiens, UniProt Q93009); experiment: Competitive ABPP with HA-Ub-VS in MCF7 crude cell extracts; type: binding; design: endogenous in cells; host or cells: MCF7; details: read-out: IC50 of inhibition of HA-Ub-VS labeling
USP7, sequence (Q93009 whole entry): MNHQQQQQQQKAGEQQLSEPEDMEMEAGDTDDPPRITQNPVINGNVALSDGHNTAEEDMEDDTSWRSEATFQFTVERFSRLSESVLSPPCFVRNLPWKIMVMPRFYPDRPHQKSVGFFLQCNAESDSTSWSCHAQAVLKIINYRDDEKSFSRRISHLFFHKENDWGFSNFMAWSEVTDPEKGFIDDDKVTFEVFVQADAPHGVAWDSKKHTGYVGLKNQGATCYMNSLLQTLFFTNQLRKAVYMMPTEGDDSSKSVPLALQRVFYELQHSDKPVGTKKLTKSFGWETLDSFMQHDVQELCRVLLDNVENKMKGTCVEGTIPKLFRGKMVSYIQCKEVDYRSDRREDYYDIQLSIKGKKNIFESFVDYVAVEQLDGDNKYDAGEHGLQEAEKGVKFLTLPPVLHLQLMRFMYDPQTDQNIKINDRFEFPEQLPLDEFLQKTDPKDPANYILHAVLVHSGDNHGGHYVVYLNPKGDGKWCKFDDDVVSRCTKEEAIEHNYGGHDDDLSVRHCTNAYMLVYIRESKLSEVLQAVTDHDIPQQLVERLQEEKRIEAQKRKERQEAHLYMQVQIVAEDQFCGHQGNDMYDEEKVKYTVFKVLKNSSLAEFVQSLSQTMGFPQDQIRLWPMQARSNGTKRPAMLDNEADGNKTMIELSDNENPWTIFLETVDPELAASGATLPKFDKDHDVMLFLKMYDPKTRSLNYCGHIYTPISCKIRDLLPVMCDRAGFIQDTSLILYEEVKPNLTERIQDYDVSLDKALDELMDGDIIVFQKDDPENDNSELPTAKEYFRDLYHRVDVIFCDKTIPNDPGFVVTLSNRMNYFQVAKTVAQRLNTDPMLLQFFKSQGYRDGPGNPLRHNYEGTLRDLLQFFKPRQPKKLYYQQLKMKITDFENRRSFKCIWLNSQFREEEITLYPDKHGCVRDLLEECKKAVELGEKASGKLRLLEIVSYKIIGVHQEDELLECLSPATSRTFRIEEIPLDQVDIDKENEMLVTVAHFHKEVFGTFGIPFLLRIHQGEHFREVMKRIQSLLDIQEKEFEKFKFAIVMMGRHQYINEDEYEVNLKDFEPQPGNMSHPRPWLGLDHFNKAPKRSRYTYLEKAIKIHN
Experimental: HA-Ub-VS experiments were performed as previously described in Lamberto et al[29]. Briefly, target engagement lysis buffer (50 mM Tris pH 8.0, 150 mM NaCl, 5 mM MgCl2, 0.5 mM EDTA, 0.5% NP-40, 10% glycerol, 1 mM TCEP, protease and phosphatase inhibitors) was added to cell pellets on ice. Lysate was cleared by centrifugation and diluted to 1.67 mg/mL. Where indicated, 30 μL lysate was then incubated with inhibitors or DMSO for the indicated timepoints. 1 μM HA-Ub-VS was then added to the lysate and incubated at RT for the indicated time points. Labeling reactions were quenched with 4x LDS sample buffer (Thermo Fisher B0007) supplemented with 10% BME, vortexed vigorously, and heated to 95 C for 5 minutes. Samples were resolved by SDS-PAGE and analyzed by Western blot with the indicated antibodies.

[2] = tested on: panel of 41 recombinant DUBs; experiment: In vitro DUB profiling (Ubiquigent, Ub-Rho), other DUBs of the panel; type: biochemical; details: 1 µM, 15-minute pre-treatment
Experimental: Compounds were screened using the Ubiquigent Drug Profiler SPT system (www.ubiquigent.com/drug-discovery-services/dubprofiler/). Each of 41 purified DUBs was incubated with compound for 15 minutes, then ubiquitin rhodamine 110 (Ub-Rho) was added and percent inhibition determined based on fluorescence relative to a DMSO control.

## CN1CCN(CCC(=O)Nc2ccc3c(=O)n(CC4(O)CCN(C(=O)[C@@H](CCCNC(=O)c5ccc6c(Cl)c7c(nc6c5)CCCC7)Cc5ccccc5)CC4)cnc3c2)CC1 [XL177A]
[1]
  mass shift with USP7 C223A: no mass shift was detected
USP7; 30 min preincubation
  IC50: 85 nM
USP7; 4 hr preincubation
  IC50: 8 nM
[2]
  activity against any other DUBs: did not exhibit significant activity
